Literature values in patent US11154507B2, “Freeze-dried aripiprazole formulation” (OTSUKA PHARMACEUTICAL CO., LTD., priority 2011, dated 2021).

Conditions: room temperature

solubility in water: < 1 µg/mL
Compound: O=C1CCc2ccc(OCCCCN3CCN(c4cccc(Cl)c4Cl)CC3)cc2N1 [Aripiprazole]
